Measured values: patent US10251892B2, “Bicyclic heterocycles as FGFR4 inhibitors” (Incyte Corporation, priority 2015, dated 2019)

Biological target: FGFR3 enzyme (Homo sapiens (Human), UniProt P22607)
Assay: FGFR Enzymatic Assay (peptide phosphorylation, FRET), FGFR3
Type: biochemical
Settings: IC50 ratio showing FGFR3 selectivity; pre-incubated for 4 hours
Procedure: The inhibitor potency of the exemplified compounds was measured in an enzyme assay that measures peptide phosphorylation using FRET measurements to detect product formation. Inhibitors were serially diluted in DMSO and a volume of 0.5 μL was transferred to the wells of a 384-well plate.
GraphPad prism3 was used to analyze the data.

Chain of FGFR3 enzyme (P22607 23-806): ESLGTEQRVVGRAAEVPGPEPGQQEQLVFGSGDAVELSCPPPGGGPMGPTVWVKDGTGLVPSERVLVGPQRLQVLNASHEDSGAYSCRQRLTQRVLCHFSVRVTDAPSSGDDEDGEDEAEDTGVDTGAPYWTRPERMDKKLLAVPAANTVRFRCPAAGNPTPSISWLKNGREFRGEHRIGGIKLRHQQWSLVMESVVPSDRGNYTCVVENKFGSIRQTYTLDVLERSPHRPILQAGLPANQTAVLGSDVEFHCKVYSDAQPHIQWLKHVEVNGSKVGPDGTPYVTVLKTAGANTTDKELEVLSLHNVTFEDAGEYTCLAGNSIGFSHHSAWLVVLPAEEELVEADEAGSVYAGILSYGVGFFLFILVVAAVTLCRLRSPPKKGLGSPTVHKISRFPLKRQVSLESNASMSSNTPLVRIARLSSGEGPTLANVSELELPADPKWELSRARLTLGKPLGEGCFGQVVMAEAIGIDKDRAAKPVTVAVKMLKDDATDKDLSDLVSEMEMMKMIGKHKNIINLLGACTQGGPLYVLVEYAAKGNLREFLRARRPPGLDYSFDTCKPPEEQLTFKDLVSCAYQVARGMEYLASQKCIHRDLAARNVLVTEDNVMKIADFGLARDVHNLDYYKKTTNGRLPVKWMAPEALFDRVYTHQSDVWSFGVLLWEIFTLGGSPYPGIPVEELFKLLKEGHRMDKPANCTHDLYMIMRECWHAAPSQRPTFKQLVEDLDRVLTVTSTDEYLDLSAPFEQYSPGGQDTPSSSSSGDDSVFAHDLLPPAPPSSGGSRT

Row | SMILES | FGFR1/FGFR3 | FGFR4/FGFR3
1 | CCn1cc(-c2cc3c(cn2)CN(c2c(F)c(OC)cc(OC)c2F)C(=O)C32CC2)c(C)n1 [Example 158, 2′-(2,6-difluoro-3,5-dimethoxyphenyl)-6′-(1-ethyl-3-methyl-1H-pyrazol-4-yl)-1′H-spiro[cyclopropane-1,4′-[2,7]naphthyridin]-3′(2′H)-one] | >5 | >3
2 | COc1cc(OC)c(F)c(N2Cc3cnc(-c4cn(CC(=O)N5CCOCC5)nc4C)cc3C3(CC3)C2=O)c1F [Example 159, 2′-(2,6-difluoro-3,5-dimethoxyphenyl)-6′-(3-methyl-1-(2-morpholino-2-oxoethyl)-1H-pyrazol-4-yl)-1′H-spiro[cyclopropane-1,4′-[2,7]naphthyridin]-3′(2′H)-one] | >5 | >3
3 | COc1cc(OC)c(F)c(N2Cc3cnc(-c4csc(N(C)C)n4)cc3C3(CC3)C2=O)c1F [Example 160, 2′-(2,6-difluoro-3,5-dimethoxyphenyl)-6′-(2-(dimethylamino)thiazol-4-yl)-1′H-spiro[cyclopropane-1,4′-[2,7]naphthyridin]-3′(2′H)-one] | >5 | >5
4 | COc1cc(OC)c(F)c(N2Cc3cnc(-c4cnn(CCN5CCC(OC)C5)c4)cc3C3(CC3)C2=O)c1F (stereo not shown) [Example 161, 2′-(2,6-difluoro-3,5-dimethoxyphenyl)-6′-(1-(2-(3-methoxypyrrolidin-1-yl)ethyl)-1H-pyrazol-4-yl)-1′H-spiro[cyclopropane-1,4′-[2,7]naphthyridin]-3′(2′H)-one] | >5 | >3
5 | COc1cc(OC)c(F)c(N2Cc3cnc(-c4cnn(CC5CCCS(=O)(=O)N5)c4)cc3C3(CC3)C2=O)c1F (stereo not shown) [Example 162, 2′-(2,6-difluoro-3,5-dimethoxyphenyl)-6′-{1-[(1,1-dioxido-1,2-thiazinan-3-yl)methyl]-1H-pyrazol-4-yl}-1′H-spiro[cyclopropane-1,4′-[2,7]naphthyridin]-3′(2′H)-one] | >5 | >1
6 | COc1cc(OC)c(F)c(N2Cc3cnc(-c4cn(C5CCN(C)C5)nc4C)cc3C3(CC3)C2=O)c1F (stereo not shown) [Example 163, 2′-(2,6-difluoro-3,5-dimethoxyphenyl)-6′-(3-methyl-1-(1-methylpyrrolidin-3-yl)-1H-pyrazol-4-yl)-1′H-spiro[cyclopropane-1,4′-[2,7]naphthyridin]-3′(2′H)-one] | >3 | >3
7 | COc1cc(OC)c(F)c(N2Cc3cnc(-c4cn(CCN(C)C)nc4C)cc3C3(CC3)C2=O)c1F [Example 164, 2′-(2,6-difluoro-3,5-dimethoxyphenyl)-6′-(1-(2-(dimethylamino)ethyl)-3-methyl-1H-pyrazol-4-yl)-1′H-spiro[cyclopropane-1,4′-[2,7]naphthyridin]-3′(2′H)-one] | >3 | >3
8 | COc1cc(OC)c(F)c(N2Cc3cnc(-c4cn(CCC5CCNCC5)nc4C)cc3C3(CC3)C2=O)c1F [Example 165, 2′-(2,6-difluoro-3,5-dimethoxyphenyl)-6′-(3-methyl-1-(2-(piperidin-4-yl)ethyl)-1H-pyrazol-4-yl)-1′H-spiro[cyclopropane-1,4′-[2,7]naphthyridin]-3′(2′H)-one] | >3 | >3
9 | COc1cc(OC)c(F)c(N2Cc3cnc(-c4cnn(CC5CN(S(C)(=O)=O)C5)c4)cc3C3(CC3)C2=O)c1F [Example 166, 2′-(2,6-difluoro-3,5-dimethoxyphenyl)-6′-(1-((1-(methylsulfonyl)azetidin-3-yl)methyl)-1H-pyrazol-4-yl)-1′H-spiro[cyclopropane-1,4′-[2,7]naphthyridin]-3′(2′H)-one] | >3 | >3
10 | COc1cc(OC)c(F)c(N2Cc3cnc(-c4cnn(CC5CN(C(C)=O)C5)c4)cc3C3(CC3)C2=O)c1F [Example 167, 6′-(1-((1-acetylazetidin-3-yl)methyl)-1H-pyrazol-4-yl)-2′-(2,6-difluoro-3,5-dimethoxyphenyl)-1′H-spiro[cyclopropane-1,4′-[2,7]naphthyridin]-3′(2′H)-one] | >3 | >3
11 | CCN1C(=O)N(c2c(F)c(OC)cc(OC)c2F)Cc2cnc(-c3cn(CC)nc3C)cc21 [Example 168, 3-(2,6-difluoro-3,5-dimethoxyphenyl)-1-ethyl-7-(1-ethyl-3-methyl-1H-pyrazol-4-yl)-3,4-dihydropyrido[4,3-d]pyrimidin-2(1H)-one] | >5 | >3
12 | CCN1C(=O)N(c2c(F)c(OC)cc(OC)c2F)Cc2cnc(-c3cnn(C)c3)cc21 [Example 169, 3-(2,6-difluoro-3,5-dimethoxyphenyl)-1-ethyl-7-(1-methyl-1H-pyrazol-4-yl)-3,4-dihydropyrido[4,3-d]pyrimidin-2(1H)-one] | >3 | >5
13 | CCNC(=O)c1ccc(-c2cc3c(cn2)CN(c2c(F)c(OC)cc(OC)c2F)C(=O)N3CC)cn1 [Example 175, 5-(3-(2,6-difluoro-3,5-dimethoxyphenyl)-1-ethyl-2-oxo-1,2,3,4-tetrahydropyrido[4,3-d]pyrimidin-7-yl)-N-ethylpicolinamide] | >10 | >5
14 | CCN1C(=O)N(c2c(F)c(OC)cc(OC)c2F)Cc2cnc(-c3ccc(C(=O)NC4CC4)nc3)cc21 [Example 176, N-cyclopropyl-5-(3-(2,6-difluoro-3,5-dimethoxyphenyl)-1-ethyl-2-oxo-1,2,3,4-tetrahydropyrido[4,3-d]pyrimidin-7-yl)picolinamide] | >10 | >5
15 | CCN1C(=O)N(c2c(F)c(OC)cc(OC)c2F)Cc2cnc(-c3ccc(C(=O)NCCO)nc3)cc21 [Example 177, 5-(3-(2,6-difluoro-3,5-dimethoxyphenyl)-1-ethyl-2-oxo-1,2,3,4-tetrahydropyrido[4,3-d]pyrimidin-7-yl)-N-(2-hydroxyethyl)picolinamide] | >5 | >10
16 | CCN1C(=O)N(c2c(F)c(OC)cc(OC)c2F)Cc2cnc(-c3ccc(C(=O)NC(C)C)nc3)cc21 [Example 178, 5-(3-(2,6-difluoro-3,5-dimethoxyphenyl)-1-ethyl-2-oxo-1,2,3,4-tetrahydropyrido[4,3-d]pyrimidin-7-yl)-N-isopropylpicolinamide] | >5 | >5
17 | CCCNC(=O)c1ccc(-c2cc3c(cn2)CN(c2c(F)c(OC)cc(OC)c2F)C(=O)N3CC)cn1 [Example 179, 5-(3-(2,6-difluoro-3,5-dimethoxyphenyl)-1-ethyl-2-oxo-1,2,3,4-tetrahydropyrido[4,3-d]pyrimidin-7-yl)-N-propylpicolinamide] | >5 | >10
18 | CCN1C(=O)N(c2c(F)c(OC)cc(OC)c2F)Cc2cnc(-c3ccc(CC#N)cc3)cc21 [Example 180, 2-(4-(3-(2,6-difluoro-3,5-dimethoxyphenyl)-1-ethyl-2-oxo-1,2,3,4-tetrahydropyrido[4,3-d]pyrimidin-7-yl)phenyl)acetonitrile] | >5 | >5
19 | CCN1C(=O)N(c2c(F)c(OC)cc(OC)c2F)Cc2cnc(-c3ccc(C4(C#N)CCC4)cc3)cc21 [Example 181, 1-(4-(3-(2,6-difluoro-3,5-dimethoxyphenyl)-1-ethyl-2-oxo-1,2,3,4-tetrahydropyrido[4,3-d]pyrimidin-7-yl)phenyl)cyclobutanecarbonitrile] | >5 | >10
20 | CCN1C(=O)N(c2c(F)c(OC)cc(OC)c2F)Cc2cnc(-c3ccc(N4CCOCC4)nc3)cc21 [Example 182, 3-(2,6-difluoro-3,5-dimethoxyphenyl)-1-ethyl-7-(6-morpholinopyridin-3-yl)-3,4-dihydropyrido[4,3-d]pyrimidin-2(1H)-one] | >5 | >5
21 | CCN1C(=O)N(c2c(F)c(OC)cc(OC)c2F)Cc2cnc(-c3ccc(C4(C#N)CC4)cc3)cc21 [Example 183, 1-(4-(3-(2,6-difluoro-3,5-dimethoxyphenyl)-1-ethyl-2-oxo-1,2,3,4-tetrahydropyrido[4,3-d]pyrimidin-7-yl)phenyl)cyclopropanecarbonitrile] | >3 | >10
22 | CCN1C(=O)N(c2c(F)c(OC)cc(OC)c2F)Cc2cnc(-c3ccc(C(N)=O)nc3)cc21 [Example 184, 5-(3-(2,6-difluoro-3,5-dimethoxyphenyl)-1-ethyl-2-oxo-1,2,3,4-tetrahydropyrido[4,3-d]pyrimidin-7-yl)picolinamide] | >5 | >5
23 | COc1cc(OC)c(F)c(N2Cc3cnc(-c4ccncc4)cc3C3(CC3)C2=O)c1F [Example 185, 2′-(2,6-difluoro-3,5-dimethoxyphenyl)-6′-(pyridin-4-yl)-1′H-spiro[cyclopropane-1,4′-[2,7]naphthyridin]-3′(2′H)-one] | >3 | >3
24 | COc1cc(OC)c(F)c(N2Cc3cnc(-c4cnn(C)c4)cc3C3(CC3)C2=O)c1F [Example 186, 2′-(2,6-difluoro-3,5-dimethoxyphenyl)-6′-(1-methyl-H-pyrazol-4-yl)-1′,2′-dihydro-3′H-spiro[cyclopropane-1,4′-[2,7]naphthyridin]-3′-one] | >5 | >5
25 | COc1cc(OC)c(F)c(N2Cc3cnc(-c4ccc(C5(C#N)CCC5)nc4)cc3N(Cc3nnc(C)o3)C2=O)c1F [Example 187, 1-(5-{3-(2,6-difluoro-3,5-dimethoxyphenyl)-1-[(5-methyl-1,3,4-oxadiazol-2-yl)methyl]-2-oxo-1,2,3,4-tetrahydropyrido[4,3-d]pyrimidin-7-yl}pyridin-2-yl)cyclobutanecarbonitrile] | >10 | >10
26 | COc1cc(OC)c(F)c(N2Cc3cnc(-c4ccc(C5(C#N)CCC5)nc4)cc3N(c3cnn(C)c3)C2=O)c1F [Example 188, 1-{5-[3-(2,6-difluoro-3,5-dimethoxyphenyl)-1-(1-methyl-1H-pyrazol-4-yl)-2-oxo-1,2,3,4-tetrahydropyrido[4,3-d]pyrimidin-7-yl]pyridin-2-yl}cyclobutanecarbonitrile] | >5 | >5
